One series relates to S. aureus. Description: S. aureus mouse skin abrasion and infection model. It is filed as in vivo, mouse (BALB/c). The protocol: Female BALB/c mice weighing 18–20 g were purchased from the Hubei Research Center of Laboratory Animals. All animal studies were approved by the Institutional Animal Care and Use Committee of Wuhan University.
Kn2-7 or BmKn2 was prepared in gel form in 0.5% hydroxypropylcellulose to a final concentration of 5 mg/mL.
Mice were injected with 150 mg/kg of cyclophosphamide 4 days prior to infection. Subsequently, the mice were injected with 100 mg/kg of cyclophosphamide 1 day prior to infection. After being anesthetized, the dorsal skin of the mice was shaved, and abrasions were produced in a 1×1 cm^2 area using a blade. These abrasion wounds damaged only the stratum corneum and upper layer of the epidermis, but not the dermis. Five minutes later, the wounds were inoculated with 20 µl of S. aureus (10^7–10^8 CFUs) using a micropipettor. A group of mice was killed 4 h after infection to control for the infectious dose. Four hours after infection, the wounds of the other mice were smeared with 20 µl of 5 mg/mL gel or a placebo gel, which was used as a negative control. The treatment lasted for 4 days, with two peptide gel applications being performed daily (morning and evening at 8 h intervals). After 4 days of treatment, the mice were killed, and the wound area of the skin was immediately excised and homogenized. Suitable dilutions of the homogenates were plated on LB plates to determine the number of living bacteria (CFUs).
After the animals were euthanized, biopsy specimens of the excised wound area of the skin were collected and immediately fixed in phosphate-buffered formalin (10%, pH = 7.4). Then, the biopsy specimens were embedded in paraffin and stained with hematoxylin and eosin.
In each experiment, the mean CFU was calculated using log10-transformed data. Based on the averages of three experiments, the mean, range, and coefficient of variation were calculated.

A further series deals with B. thuringiensis AB92037. The series can be described thus: MIC, broth microdilution (CLSI). In kind it is cell-based, Bacillus thuringiensis. The settings on record: B. thuringiensis AB92037, Gram-positive, 96-well. As to the method:
(§1) S. aureus AB94004, S. aureus ATCC 25923, E. coli AB94012, E. coli ATCC 25922, Pseudomonas aeruginosa AB93066, Bacillus thuringiensis AB92037, Bacillus subtilis AB91021, and Micrococcus luteus AB93113 were purchased from the China Center of Type Culture Collection (CCTCC).
(§2) The MIC was determined via a microdilution assay in 96-well microtiter plates according to the broth microdilution guideline of Clinical and Laboratory Standards Institute (CLSI).
Background: Broth dilution looks for growth in wells or tubes with falling amounts of substance.

A further series has as its system S. aureus ATCC 25923. The series can be described thus: MIC, broth microdilution (CLSI). In kind it is cell-based. The note with it: S. aureus ATCC 25923, Gram-positive, 96-well. As to the method: as §1, §2
Another series has as its system E. coli ATCC 25922. The series can be described thus: MIC, broth microdilution (CLSI). It is filed as cell-based. The settings on record: E. coli ATCC 25922, Gram-negative, 96-well. As to the method:
as §1, §2

The test system of series [1] is penicillin-resistant S. epidermidis (PRSE) P1389. Description: microbe, parasite or virus in culture. In kind it is cell-based. The note with it: P1389, penicillin resistant (PRSE) clinical isolate; repeated at least three times. As to the method:
(§3) Clinical isolates were obtained from the 302nd military hospital of Beijing, China, including penicillin-resistant S. aureus (PRSA) P1383, penicillin-resistant S. epidermidis (PRSE) P1389, methicillin-resistant S. aureus (MRSA) P1381, P1386 and P1374, methicillin-resistant coagulase-negative Staphylococcus (MRCNS) P1369, and penicillin-sensitive S. epidermidis (PSSE) P1111.
as §2

Series [2] deals with penicillin-sensitive S. epidermidis (PSSE) P1111. The series can be described thus: microbe, parasite or virus in culture. It is filed as cell-based. The note with it: P1111, penicillin sensitive (PSSE) clinical isolate; repeated at least three times. As to the method:
as §3, §2

Series [3] relates to methicillin-resistant S. aureus (MRSA) P1381. Description: microbe, parasite or virus in culture. It is filed as cell-based. The note with it: P1381, methicillin resistant (MRSA) clinical isolate; repeated at least three times. As to the method: as §3, §2
Series [4] deals with penicillin-resistant S. aureus (PRSA) P1383. Description: microbe, parasite or virus in culture. In kind it is cell-based. The note with it: P1383, penicillin resistant (PRSA) clinical isolate; repeated at least three times. The protocol: as §3, §2
Series [5] concerns methicillin-resistant S. aureus (MRSA) P1374. The series can be described thus: microbe, parasite or virus in culture. In kind it is cell-based. The settings on record: P1374, methicillin resistant (MRSA) clinical isolate; repeated at least three times. As to the method: as §3, §2
For series [6], the system named is methicillin-resistant S. aureus (MRSA) P1386. The series can be described thus: microbe, parasite or virus in culture. It is filed as cell-based. The settings on record: P1386, methicillin resistant (MRSA) clinical isolate; repeated at least three times. As to the method: as §3, §2
In another series the test system is P. aeruginosa AB93066. The series can be described thus: MIC, broth microdilution (CLSI). In kind it is cell-based, Pseudomonas aeruginosa. The settings on record: P. aeruginosa AB93066, Gram-negative, 96-well. As to the method: as §1, §2
In a further series the test system is B. subtilis AB91021. The series can be described thus: MIC, broth microdilution (CLSI). In kind it is cell-based, Bacillus subtilis. The note with it: B. subtilis AB91021, Gram-positive, 96-well. The protocol:
as §1, §2

The test system of another series is human red blood cells. The series can be described thus: Hemolytic activity. In kind it is cell-based. The note with it: 37 °C, 1 h, absorbance at 570 nm, positive control 0.1% Triton X-100, method of Käber modified by Achmarine. The protocol:
Figure 1 Screening, antimicrobial and hemolytic activities of Kn2-7 in vitro. (A) Multiple alignments of Kn2-7 and its seven derivatives. (B) Predicted secondary structure of Kn2-7 and its seven derivatives. (C) Antibacterial activity screening of Kn2-7 and its seven derivative peptides. (D) Hemolytic activity of Kn2-7. The hemolytic activities of the Kn2-7 and BmKn2 peptides were estimated by monitoring the increase in the absorbance at 570 nm after incubating human red blood cells with different peptide concentrations at 37 °C for 1 h. The positive control was 0.1% Triton X-100, and 0.85% saline was used as a blank. […] It is read as >100 for BmKn2, Kn2-3 and Kn2-4, and as 100 for Kn2-1, Kn2-2, Kn2-5 and Kn2-6.
The hemolytic activities of Kn2-7 and BmKn2 peptides were tested against human red blood cells. HC50 values were obtained according to the method of Käber, modified by Achmarine. Saline solution at a concentration of 0.85% was used as the negative control, and 0.1% Triton X-100 was used as the positive control.

Ends that are not written are not given here. Bounds are passed on as bounds.

Turning to FIKRIARLLRKIF [Kn2-7], the “Cutaneous viable counts (colony counts) of S. aureus” value in the series on S. aureus (female BALB/c mice, cyclophosphamide-pretreated, skin abrasion, 10^7–10^8 CFUs, topical 20 µl of 5 mg/mL gel (0.5% hydroxypropylcellulose) twice daily for 4 days, eight mice per group, versus placebo-treated and untreated mice) is “clearly lower”. The “Histological morphology of the skin sections, four days after infection” value in the series on S. aureus (hematoxylin and eosin, topical 5 mg/mL gel twice daily for 4 days, untreated and placebo groups lost nearly all epidermis) was “recovered almost fully”. In addition, the “Appearance of the infected skin, four days after infection” value with S. aureus (topical 5 mg/mL gel twice daily for 4 days, placebo blisters became larger) is “healed”. For the same substance, in the series on S. aureus (topical 5 mg/mL gel twice daily, placebo skin wet with blistering), the “Appearance of the infected skin, one day after infection” value was “scabbed over”.

Regarding FIGAIARLLSKIF-NH2 [BmKn2], the MIC against B. thuringiensis AB92037 is given as 12.5 µg/mL; against S. aureus ATCC 25923 it was 6.25 µg/mL; in the series with E. coli ATCC 25922 it was more than 100 µg/mL; in series [1], 12.5 µg/mL; in [2], 6.25 µg/mL; in [3], 12.5 µg/mL. Further, the MIC in series [4] came out at 12.5 µg/mL; in [5], 12.5 µg/mL; in series [6] it was 12.5 µg/mL; against P. aeruginosa AB93066 it was 50 µg/mL; against B. subtilis AB91021, 12.5 µg/mL. The “HC50 (hemolytic activity)” value with human red blood cells is 17.13 µg/mL.
